# In US11993570B2, “Cationic lipids” (TAKEDA PHARMACEUTICAL COMPANY LIMITED, priority 2017, dated 2024):
# Legend:
# [1] = Analysis of luciferase mRNA lipid particle composition (Production Example 1); assay type: physicochemical; settings: for Particle size: lipid particle cationic lipid:DPPC:cholesterol:GM-020=60:10.6:28:1.4 with luciferase mRNA, Zetasizer Nano ZS; for Encapsulation ratio / mRNA Concentration: lipid particle composition with luciferase mRNA, RiboGreen
# Source text: (§1) The particle size of the lipid particle (in the composition) can be measured by using a known means. For example, a Zetasizer Nano ZS (Malvern Instruments Limited), a particle size analyzer based on an NIBS (non-invasive backscatter) technique, can be used to calculate the particle size as a z-average particle size through cumulant analysis of the autocorrelation function. The particle size (average particle size) of the lipid particle (in the composition) is preferably 10 to 200 nm.
# (§2) The concentration and encapsulation ratio of a nucleic acid (e.g., an siRNA, an mRNA) as an active ingredient in the composition of the present invention can be measured by using a known means. For example, after the nucleic acid is fluorescence-labeled with Quant-iT™ RiboGreen® (Invitrogen), the concentration and the encapsulation ratio can be determined by measuring the fluorescence intensity. The concentration of the nucleic acid in the composition can be calculated by using a standard curve prepared from aqueous solutions of the nucleic acid with known concentrations, and the encapsulation ratio can be calculated on the basis of difference in fluorescence intensity depending on the presence or absence of addition of Triton-X100 (a surfactant to disintegrate the lipid particle). The concentration of the nucleic acid in the composition refers to the total concentration of molecules of the nucleic acid encapsulated in the lipid particle and molecules of the nucleic acid not encapsulated in the lipid particle, and the encapsulation ratio refers to the fraction of molecules of the nucleic acid encapsulated in the lipid particle to all the molecules of the nucleic acid in the composition.
# (§3) A lipid mixture (cationic lipid produced in Examples:DPPC:cholesterol:GM-020=60:10.6:28:1.4, in mole ratio) was dissolved in 90% EtOH/10% RNase-free water to afford a 8.5 mg/mL lipid solution. Luciferase mRNA (TriLink Bio Technologies) was dissolved in 10 mM 2-morpholinoethanesulfonate (MES) buffer at pH 4.0 to afford a 0.22 mg/mL nucleic acid solution. The lipid solution and nucleic acid solution obtained were mixed by using the apparatus NanoAssemblr (Precision Nanosystems) at room temperature with a flow rate ratio of 3 mL/min:6 mL/min to afford a dispersion containing a lipid particle encapsulating the nucleic acid. By using a Slyde-A-Lyzer (molecular weight cutoff: 20k, Thermo Fisher Scientific), the dispersion obtained was dialyzed with water at room temperature for 1 hour and with PBS at 4° C. for 48 hours. Subsequently, filtration was performed with a 0.2 µm syringe filter (IWAKI CO., LTD.) to prepare a composition for nucleic acid introduction, and thereafter the composition was stored at 4° C. The particle size of the lipid particle was measured by using a Zetasizer Nano ZS (Malvern Instruments Limited). The mRNA concentration and encapsulation ratio of the lipid particle were measured by using a Quant-iT™ RiboGreen® (Invitrogen).
# HCT116 cells = assay: Test of mRNA transfection into cultured cells (luciferase expression); assay type: cell-based, human; settings: HCT116, 10 ng luciferase mRNA per well, 24 hours after addition
# Experimental: as §3
# The human colorectal cancer-derived cell line HCT116 cells were cultured in a 96-well plate at a cell density of 6000 cells/well, and 24 hours thereafter 10 μL of the composition containing 10 ng of luciferase mRNA for nucleic acid introduction (a solution obtained by diluting the product of Production Example 1 to an mRNA concentration of 10 ng/10 μL) was added to the medium. The level of luciferase expressed in HCT116 24 hours after the addition of mRNA was measured by using a Picagene LT2.0 kit (TOYOBO CO., LTD.).
# [2] = Analysis of Col1a1/FVII siRNA lipid particle composition (Production Example 2); assay type: physicochemical; settings: for Particle size: lipid particle cationic lipid:DPPC:cholesterol:GM-020=60:10.6:28:1.4 with Col1a1 and FVII siRNA, Zetasizer Nano ZS; for Encapsulation ratio / siRNA Concentration: lipid particle composition with Col1a1 and FVII siRNA, RiboGreen
# Source text: as §1, §2
# A lipid mixture (cationic lipid produced in Examples:DPPC:cholesterol:GM-020=60:10.6:28:1.4, in mole ratio) was dissolved in 90% EtOH/10% RNase-free water to afford an approximately 7 mg/mL lipid solution. Equal amounts of an siRNA for Col1a1 and an siRNA for Factor VII (FVII) were mixed together, and the mixture was dissolved in 25 mM acetate buffer at pH 4.0 to afford a 0.2 mg/mL nucleic acid solution. Sequence information on the siRNAs are shown in a table below. The lipid solution and nucleic acid solution obtained were mixed by using the apparatus NanoAssemblr (Precision Nanosystems) at room temperature with a flow rate ratio of 3 mL/min:9 mL/min to afford a dispersion containing a lipid particle including the nucleic acids. By using a Slyde-A-Lyzer (molecular weight cutoff: 20k, Thermo Fisher Scientific), the dispersion obtained was dialyzed with water at room temperature for 1 hour and with PBS at 4° C. for 48 hours. Subsequently, filtration was performed with a 0.2 µm syringe filter (IWAKI CO., LTD.) to prepare a composition for nucleic acid introduction, and thereafter the composition was stored at 4° C. The particle size of the lipid particle was measured by using a Zetasizer Nano ZS (Malvern Instruments Limited). The mRNA concentration and encapsulation ratio of the lipid particle were measured by using a Quant-iT™ RiboGreen® (Invitrogen).
Particle size [1],Encapsulation ratio [1],mRNA Concentration [1],Particle size [2],Encapsulation ratio [2],siRNA Concentration [2],Compound,Mean value of luminescence for 3 wells (HCT116 cells; Table 3 (PBS control 560)),Mean value of luminescence for 3 wells (HCT116 cells; Table 4 (PBS control 627))
71 nm,96%,136 µg/mL,,,,"CCCC/C=C\CCCCCCCC(=O)OCC(COC(=O)CCCCCCC/C=C\CCCC)(COC(=O)CCCCCCC/C=C\CCCC)COC(=O)CCCN(C)C [Example 1, 3-((4-(Dimethylamino)butanoyl)oxy)-2,2-bis(((9Z)-tetradec-9-enoyloxy)methyl)propyl (9Z)-tetradec-9-enoate]",227720 cps,
108 nm,62%,129 µg/mL,,,,"CCCC/C=C\CCCCCCCC(=O)OCC(COC(=O)CCCCCCC)(COC(=O)CCCCCCC/C=C\CCCC)COC(=O)CCCN(C)C [Example 9, 2-(((4-(dimethylamino)butanoyl)oxy)methyl)-2-((octanoyloxy)methyl)propane-1,3-diyl (9Z,9′Z)bis-tetradec-9-enoate]",,549893 cps
,,,102 nm,96%,320 µg/mL,"CCCC/C=C\CCCCCCCC(=O)OCC(COC(=O)CCCCCCC/C=C\C/C=C\CCCCC)(COC(=O)CCCCCCC/C=C\CCCC)COC(=O)CCCCN(C)C [Example 7, 3-((5-(dimethylamino)pentanoyl)oxy)-2,2-bis(((9Z)-tetradec-9-enoyloxy)methyl)propyl (9Z,12Z)-octadec-9,12-dienoate]",,
,,,87 nm,98%,333 µg/mL,"CCCC/C=C\CCCCCCCC(=O)OCC(COC(=O)CCCCCCC/C=C\CCCC)(COC(=O)CCCCCCC/C=C\CCCCCCCC)COC(=O)CCCCN(C)C [Example 6, 3-((5-(dimethylamino)pentanoyl)oxy)-2,2-bis(((9Z)-tetradec-9-enoyloxy)methyl)propyl (9Z)-octadec-9-enoate]",,
93 nm,96%,87 µg/mL,117 nm,95%,196 µg/mL,"CCCC/C=C\CCCCCCCC(=O)OCC(COC(=O)CCCCCCC/C=C\CCCC)(COC(=O)CCCCCCC/C=C\CCCC)COC(=O)CCCCCN(C)C [Example 3, 3-((6-(dimethylamino)hexanoyl)oxy)-2,2-bis(((9Z)-tetradec-9-enoyloxy)methyl)propyl (9Z)-tetradec-9-enoate]",412187 cps,
91 nm,98%,96 µg/mL,103 nm,94%,367 µg/mL,"CCCC/C=C\CCCCCCCC(=O)OCC(COC(=O)CCCCCCC/C=C\CCCC)(COC(=O)CCCCCCC/C=C\CCCCCC)COC(=O)CCCCN(C)C [Example 5, 3-((5-(dimethylamino)pentanoyl)oxy)-2,2-bis(((9Z)-tetradec-9-enoyloxy)methyl)propyl (9Z)-hexadec-9-enoate]",545507 cps,
92 nm,84%,86 µg/mL,88 nm,90%,307 µg/mL,"CCCC/C=C\CCCCCCCC(=O)OCC(COC(=O)CCCCCCC/C=C\CCCC)(COC(=O)CCCCCCCCC)COC(=O)CCCN(C)C [Example 10, 2-((decanoyloxy)methyl)-2-(((4-(dimethylamino)butanoyl)oxy)methyl)propane-1,3-diyl (9Z,9′Z)bis-tetradec-9-enoate]",1203467 cps,
83 nm,92%,85 µg/mL,85 nm,91%,402 µg/mL,"CCCC/C=C\CCCCCCCC(=O)OCC(COC(=O)CCCCCCC/C=C\CCCC)(COC(=O)CCCCCCCCCCC)COC(=O)CCCN(C)C [Example 11, 2-(((4-(Dimethylamino)butanoyl)oxy)methyl)-2-((dodecanoyloxy)methyl)propane-1,3-diyl (9Z,9′Z)bis-tetradec-9-enoate]",953520 cps,
67 nm,94%,84 µg/mL,,,,"CCCC/C=C\CCCCCCCC(=O)OCC(COC(=O)CCCCCCC)(COC(=O)CCCCCCC/C=C\CCCC)COC(=O)CCN(C)C [Example 8, 2-(((N,N-dimethyl-β-alanyl)oxy]methyl}-2-[(octanoyloxy)methyl)propane-1,3-diyl (9Z,9′Z)bis-tetradec-9-enoate]",3853 cps,
76 nm,97%,113 µg/mL,90 nm,89%,355 µg/mL,"CCCC/C=C\CCCCCCCC(=O)OCC(COC(=O)CCCCCCC/C=C\CCCC)(COC(=O)CCCCCCC/C=C\CCCCCC)COC(=O)CCCN(C)C [Example 4, 3-((4-(Dimethylamino)butanoyl)oxy)-2,2-bis(((9Z)-tetradec-9-enoyloxy)methyl)propyl (9Z)-hexadec-9-enoate]",407547 cps,
90 nm,96%,73 µg/mL,104 nm,98%,251 µg/mL,"CCCC/C=C\CCCCCCCC(=O)OCC(COC(=O)CCCCCCC/C=C\CCCC)(COC(=O)CCCCCCC/C=C\CCCC)COC(=O)CCCCN(C)C [Example 2, 3-((5-(dimethylamino)pentanoyl)oxy)-2,2-bis(((9Z)-tetradec-9-enoyloxy)methyl)propyl (9Z)-tetradec-9-enoate]",570027 cps,
